The record followed here is patent publication US11173162B2, “Bicyclic heterocycles as FGFR4 inhibitors” (Incyte Corporation, priority 2015, dated 2021).

The subject of the test is FGFR3 enzyme. Description: FGFR Enzymatic Assay (FRET peptide phosphorylation), FGFR3. The settings on record: IC50 ratio showing FGFR3 selectivity; Table 2A, pre-incubated for 4 hours. Type of test: biochemical. On the procedure:
The inhibitor potency of the exemplified compounds was measured in an enzyme assay that measures peptide phosphorylation using FRET measurements to detect product formation. Inhibitors were serially diluted in DMSO and a volume of 0.5 μL was transferred to the wells of a 384-well plate.
GraphPad prism3 was used to analyze the data.

For the compound `COc1cc(OC)c(F)c(N2Cc3cnc(-c4ccccc4)cc3C3(CC3)C2=O)c1F` [Example 17, 2′-(2,6-difluoro-3,5-dimethoxyphenyl)-6′-phenyl-1′H-spiro[cyclopropane-1,4′-[2,7]naphthyridin]-3′(2′H)-one], the FGFR1/FGFR3 was >10. As for `CNC(=O)c1ccc(-c2cc3c(cn2)CN(c2c(F)c(OC)cc(OC)c2F)C(=O)C32CC2)cn1` [Example 18, 5-(2′-(2,6-difluoro-3,5-dimethoxyphenyl)-3′-oxo-2′,3′-dihydro-1′H-spiro[cyclopropane-1,4′-[2,7]naphthyridine]-6′-yl)-N-methylpicolinamide], the FGFR1/FGFR3 was >5.

As for `CNC(=O)c1ccc(-c2cc3c(cn2)CN(c2c(F)c(OC)cc(OC)c2F)C(=O)C32CC2)cc1` [Example 19, 4-(2′-(2,6-difluoro-3,5-dimethoxyphenyl)-3′-oxo-2′,3′-dihydro-1′H-spiro[cyclopropane-1,4′-[2,7]naphthyridine]-6′-yl)-N-methylbenzamide], the FGFR1/FGFR3 was >5. Still for that read-out and setting: the same measure for `COc1cc(OC)c(F)c(N2Cc3cnc(-c4ccc(C#N)nc4)cc3C3(CC3)C2=O)c1F` [Example 20, 5-(2′-(2,6-difluoro-3,5-dimethoxyphenyl)-3′-oxo-2′,3′-dihydro-1′H-spiro[cyclopropane-1,4′-[2,7]naphthyridine]-6′-yl)picolinonitrile]: >5; for `COc1cc(OC)c(F)c(N2Cc3cnc(-c4cn(C)nc4C)cc3C3(CC3)C2=O)c1F` [Example 21, 2′-(2,6-difluoro-3,5-dimethoxyphenyl)-6′-(1,3-dimethyl-1H-pyrazol-4-yl)-1′,2′-dihydro-3′H-spiro[cyclopropane-1,4′-[2,7]naphthyridin]-3′-one]: >5; for `CCN1C(=O)N(c2c(F)c(OC)cc(OC)c2F)Cc2cnc(-c3ccccc3)cc21` [Example 22, 3-(2,6-difluoro-3,5-dimethoxyphenyl)-1-ethyl-7-phenyl-3,4-dihydropyrido[4,3-d]pyrimidin-2(1H)-one]: >5.

Regarding `CCN1C(=O)N(c2c(F)c(OC)cc(OC)c2F)Cc2cnc(-c3cccnc3)cc21` [Example 23, 3-(2,6-difluoro-3,5-dimethoxyphenyl)-1-ethyl-7-(pyridin-3-yl)-3,4-dihydropyrido[4,3-d]pyrimidin-2(1H)-one], the FGFR1/FGFR3 is reported as >5.

Turning to `CCN1C(=O)N(c2c(F)c(OC)cc(OC)c2F)Cc2cnc(-c3ccc(CN4CC[C@H](C#N)C4)cc3)cc21` [Example 25, (S)-1-(4-(3-(2,6-difluoro-3,5-dimethoxyphenyl)-1-ethyl-2-oxo-1,2,3,4-tetrahydropyrido[4,3-d]pyrimidin-7-yl)benzyl)pyrrolidine-3-carbonitrile], the FGFR1/FGFR3 is recorded as >5 and the FGFR4/FGFR3 is on record as >5. For `CCN1C(=O)N(c2c(F)c(OC)cc(OC)c2F)Cc2cnc(-c3ccc(C(C)(C)C#N)nc3)cc21` [Example 26, 2-(5-(3-(2,6-difluoro-3,5-dimethoxyphenyl)-1-ethyl-2-oxo-1,2,3,4-tetrahydropyrido[4,3-d]pyrimidin-7-yl)pyridin-2-yl)-2-methylpropanenitrile], the FGFR1/FGFR3 is recorded as >5 and the FGFR4/FGFR3 is on record as >5. In the case of `CCN1C(=O)N(c2c(F)c(OC)cc(OC)c2F)Cc2cnc(-c3ccc(C4(C#N)CCC4)nc3)cc21` [Example 27, 1-(5-(3-(2,6-difluoro-3,5-dimethoxyphenyl)-1-ethyl-2-oxo-1,2,3,4-tetrahydropyrido[4,3-d]pyrimidin-7-yl)pyridin-2-yl)cyclobutanecarbonitrile], the FGFR1/FGFR3 is recorded as >10 and the FGFR4/FGFR3 is given as >10. With `COc1cc(OC)c(F)c(N2Cc3cnc(-c4cn(C)nc4C)cc3N(CC3CC3)C2=O)c1F` [Example 29, 1-(cyclopropylmethyl)-3-(2,6-difluoro-3,5-dimethoxyphenyl)-7-(1,3-dimethyl-1H-pyrazol-4-yl)-3,4-dihydropyrido[4,3-d]pyrimidin-2(1H)-one], the FGFR1/FGFR3 is >1 and the FGFR4/FGFR3 is recorded as >5. For the compound `CCCN1C(=O)N(c2c(F)c(OC)cc(OC)c2F)Cc2cnc(-c3cn(C)nc3C)cc21` [Example 30, 3-(2,6-difluoro-3,5-dimethoxyphenyl)-7-(1,3-dimethyl-1H-pyrazol-4-yl)-1-propyl-3,4-dihydropyrido[4,3-d]pyrimidin-2(1H)-one], the FGFR1/FGFR3 is recorded as >1 and the FGFR4/FGFR3 was >5.

For the compound `COc1cc(OC)c(F)c(N2Cc3cnc(-c4cn(C)nc4C)cc3N(Cc3cc(C)on3)C2=O)c1F` [Example 31, 3-(2,6-difluoro-3,5-dimethoxyphenyl)-7-(1,3-dimethyl-1H-pyrazol-4-yl)-1-((5-methylisoxazol-3-yl)methyl)-3,4-dihydropyrido[4,3-d]pyrimidin-2(1H)-one], the FGFR1/FGFR3 is >5 and the FGFR4/FGFR3 is reported as >10. Regarding `COc1cc(OC)c(F)c(N2Cc3cnc(-c4cn(C)nc4C)cc3N(C3CCCC3)C2=O)c1F` [Example 32, 1-cyclopentyl-3-(2,6-difluoro-3,5-dimethoxyphenyl)-7-(1,3-dimethyl-1H-pyrazol-4-yl)-3,4-dihydropyrido[4,3-d]pyrimidin-2(1H)-one], the FGFR1/FGFR3 was >1 and the FGFR4/FGFR3 is reported as >5.

In the case of `COc1cc(OC)c(F)c(N2Cc3cnc(-c4cn(C)nc4C)cc3N(C3CCOC3)C2=O)c1F` (stereo not shown) [Example 33, 3-(2,6-difluoro-3,5-dimethoxyphenyl)-7-(1,3-dimethyl-1H-pyrazol-4-yl)-1-(tetrahydrofuran-3-yl)-3,4-dihydropyrido[4,3-d]pyrimidin-2(1H)-one], the FGFR1/FGFR3 is given as >5 and the FGFR4/FGFR3 was >5. As for `COc1cc(OC)c(F)c(N2Cc3cnc(-c4cn(C)nc4C)cc3N(Cc3ccc(F)cc3)C2=O)c1F` [Example 34, 3-(2,6-difluoro-3,5-dimethoxyphenyl)-7-(1,3-dimethyl-1H-pyrazol-4-yl)-1-(4-fluorobenzyl)-3,4-dihydropyrido[4,3-d]pyrimidin-2(1H)-one], the FGFR1/FGFR3 is given as >5 and the FGFR4/FGFR3 is listed as >10. In the case of `COc1cc(OC)c(F)c(N2Cc3cnc(-c4cn(C)nc4C)cc3N(Cc3cc(C)no3)C2=O)c1F` [Example 35, 3-(2,6-difluoro-3,5-dimethoxyphenyl)-7-(1,3-dimethyl-1H-pyrazol-4-yl)-1-((3-methylisoxazol-5-yl)methyl)-3,4-dihydropyrido[4,3-d]pyrimidin-2(1H)-one], the FGFR1/FGFR3 is >5 and the FGFR4/FGFR3 was >10.

Take `COc1cc(OC)c(F)c(N2Cc3cnc(-c4cn(C)nc4C)cc3N(CC3CCOCC3)C2=O)c1F` [Example 37, 3-(2,6-difluoro-3,5-dimethoxyphenyl)-7-(1,3-dimethyl-1H-pyrazol-4-yl)-1-((tetrahydro-2H-pyran-4-yl)methyl)-3,4-dihydropyrido[4,3-d]pyrimidin-2(1H)-one]: the FGFR1/FGFR3 is >1 and the FGFR4/FGFR3 is >10. Consider `COc1cc(OC)c(F)c(N2Cc3cnc(-c4cn(C)nc4C)cc3N(Cc3ccc4c(c3)OCCO4)C2=O)c1F` [Example 38, 3-(2,6-difluoro-3,5-dimethoxyphenyl)-1-((2,3-dihydrobenzo[b][1,4]dioxin-6-yl)methyl)-7-(1,3-dimethyl-1H-pyrazol-4-yl)-3,4-dihydropyrido[4,3-d]pyrimidin-2(1H)-one], for which the FGFR1/FGFR3 is >5 and the FGFR4/FGFR3 is listed as >5. On to `CCn1cc(CN2C(=O)N(c3c(F)c(OC)cc(OC)c3F)Cc3cnc(-c4cn(C)nc4C)cc32)cn1` [Example 39, 3-(2,6-difluoro-3,5-dimethoxyphenyl)-7-(1,3-dimethyl-1H-pyrazol-4-yl)-1-((1-ethyl-1H-pyrazol-4-yl)methyl)-3,4-dihydropyrido[4,3-d]pyrimidin-2(1H)-one], for which the FGFR1/FGFR3 is reported as >10 and the FGFR4/FGFR3 is on record as >10.

For the compound `COc1cc(OC)c(F)c(N2Cc3cnc(-c4cn(C)nc4C)cc3N(c3ccc(F)cc3)C2=O)c1F` [Example 40, 3-(2,6-difluoro-3,5-dimethoxyphenyl)-7-(1,3-dimethyl-1H-pyrazol-4-yl)-1-(4-fluorophenyl)-3,4-dihydropyrido[4,3-d]pyrimidin-2(1H)-one], the FGFR1/FGFR3 was >10 and the FGFR4/FGFR3 is recorded as >10. In the case of `COc1cc(OC)c(F)c(N2Cc3cnc(-c4cn(C)nc4C)cc3N(c3ccc4ncsc4c3)C2=O)c1F` [Example 41, 1-(1,3-benzothiazol-6-yl)-3-(2,6-difluoro-3,5-dimethoxyphenyl)-7-(1,3-dimethyl-1H-pyrazol-4-yl)-3,4-dihydropyrido[4,3-d]pyrimidin-2(1H)-one], the FGFR1/FGFR3 is >1 and the FGFR4/FGFR3 is reported as >5. With `COc1cc(OC)c(F)c(N2Cc3cnc(-c4cn(C)nc4C)cc3N(C3CCN(C(C)=O)CC3)C2=O)c1F` [Example 43, 1-(1-acetylpiperidin-4-yl)-3-(2,6-difluoro-3,5-dimethoxyphenyl)-7-(1,3-dimethyl-1H-pyrazol-4-yl)-3,4-dihydropyrido[4,3-d]pyrimidin-2(1H)-one], the FGFR1/FGFR3 is >10 and the FGFR4/FGFR3 is listed as >5. The corresponding values for `COc1cc(OC)c(F)c(N2Cc3cnc(-c4cn(C)nc4C)cc3N(c3ccc(C#N)cc3)C2=O)c1F` [Example 44, 4-(3-(2,6-difluoro-3,5-dimethoxyphenyl)-7-(1,3-dimethyl-1H-pyrazol-4-yl)-2-oxo-3,4-dihydropyrido[4,3-d]pyrimidin-1 (2H)-yl)benzonitrile] are >10 and >10. With `COc1cc(OC)c(F)c(N2Cc3cnc(-c4cn(C)nc4C)cc3N(c3ccncn3)C2=O)c1F` [Example 45, 3-(2,6-difluoro-3,5-dimethoxyphenyl)-7-(1,3-dimethyl-1H-pyrazol-4-yl)-1-pyrimidin-4-yl-3,4-dihydropyrido[4,3-d]pyrimidin-2(1H)-one], the FGFR1/FGFR3 is reported as >10 and the FGFR4/FGFR3 is reported as >10.
